Assay results reported in patent US10065990B2, “Cyclic peptide compound, and preparation method, pharmaceutical composition and use thereof” (HANGZHOU GUANYU BIO-MEDICAL CO., LTD, priority 2013, dated 2018).

Tests used:
HDAC7 = biological target: T1, HDAC7 (Homo sapiens, UniProt Q8WUI4); test: HDAC biochemical activity measurement (fluorescent substrate deacetylation);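 further: fluorogenic deacetylation assay using acetyl-lysine substrate at 20 µM, enzyme and compound incubated 30 min at 37 °C, then developer added, fluorescence read at 360/460 nm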; details: HDAC7; 37° C. 30 minutes
T1 sequence (Q8WUI4 1-952): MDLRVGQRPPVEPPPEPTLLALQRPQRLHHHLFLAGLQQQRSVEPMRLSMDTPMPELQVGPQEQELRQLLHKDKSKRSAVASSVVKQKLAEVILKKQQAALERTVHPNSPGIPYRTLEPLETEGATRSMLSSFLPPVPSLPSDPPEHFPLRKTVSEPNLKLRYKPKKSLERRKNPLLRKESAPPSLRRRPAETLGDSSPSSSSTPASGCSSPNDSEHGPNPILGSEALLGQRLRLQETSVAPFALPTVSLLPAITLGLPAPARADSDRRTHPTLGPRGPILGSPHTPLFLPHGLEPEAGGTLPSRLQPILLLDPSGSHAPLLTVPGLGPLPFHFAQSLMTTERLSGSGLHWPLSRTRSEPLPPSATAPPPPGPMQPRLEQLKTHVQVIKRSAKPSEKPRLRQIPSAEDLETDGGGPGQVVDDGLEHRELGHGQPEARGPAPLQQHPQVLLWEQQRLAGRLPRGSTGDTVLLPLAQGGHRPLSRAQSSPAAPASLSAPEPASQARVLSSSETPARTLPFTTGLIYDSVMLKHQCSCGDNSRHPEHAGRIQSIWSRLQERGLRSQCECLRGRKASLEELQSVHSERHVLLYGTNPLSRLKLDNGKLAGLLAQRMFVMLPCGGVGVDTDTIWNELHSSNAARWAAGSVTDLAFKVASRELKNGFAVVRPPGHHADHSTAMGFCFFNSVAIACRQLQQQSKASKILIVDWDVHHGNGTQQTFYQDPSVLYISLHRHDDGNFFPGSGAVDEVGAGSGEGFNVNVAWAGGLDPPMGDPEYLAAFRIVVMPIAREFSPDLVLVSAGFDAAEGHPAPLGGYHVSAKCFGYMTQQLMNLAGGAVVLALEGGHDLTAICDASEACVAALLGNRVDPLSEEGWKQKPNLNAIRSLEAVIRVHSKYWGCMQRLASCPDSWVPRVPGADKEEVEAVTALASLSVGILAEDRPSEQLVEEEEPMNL

[1] = test system: N-87 (human gastric cancer cells); test: MTT cancer cell growth inhibition; format: cell-based; details: Homo sapiens, 72 h, MTT, 72 hours incubation, N-87 cells; read-out: GI50 N-87
Summary of the method: (§1)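 Following overnight attachment of 1500 cells per well, each line was exposed to test drug (final 10^−5 to 10^−10 M) for 72 h in a humidified 37° C., 5% CO2 incubator. Four hours with MTT, DMSO dissolution of formazan, and a 570 nm reading yielded viability data used for GI50.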

[2] = test system: HT1080 (human fibrosarcoma cells); test: MTT cancer cell growth inhibition; format: cell-based; details: Homo sapiens, HT-1080, 72 h, MTT, 72 hours incubation; read-out: GI50 HT1
Summary of the method: as §1

[3] = test system: SGC-7901 (human gastric cancer cells); test: MTT cancer cell growth inhibition; format: cell-based; details: Homo sapiens, SGC-7901, 72 h, MTT, 72 hours incubation, SGC-7901 cells; read-out: GI50 SGC-7901
Summary of the method: as §1

[4] = test system: HCC827 (human non-small cell lung cancer cells); test: MTT cancer cell growth inhibition; format: cell-based; details: Homo sapiens, HCC827, 72 h, MTT, 72 hours incubation, HCC827 cells; read-out: GI50 HCC827
Summary of the method: as §1

[5] = test system: Bel-7402 (human hepatoma cells); test: MTT cancer cell growth inhibition; format: cell-based; details: Homo sapiens, Bel-7402, 72 h, MTT, 72 hours incubation, Bel-7402 cells; read-out: GI50 Bel-7402
Summary of the method: as §1

[6] = test system: MCF-7 (human breast cancer cells); test: MTT cancer cell growth inhibition; format: cell-based; details: Homo sapiens, MCF7, 72 h, 72 hours incubation, read-out: GI50 MCF
Summary of the method: as §1

[7] = test system: MDA-MB-231 (breast cancer cells); test: MTT cancer cell growth inhibition; format: cell-based; details: Homo sapiens, MDA-MB-231, 72 h, read-out: GI50 MDA-MB-231, MTT, 72 hours incubation, MDA-MB-231 cells
Summary of the method: as §1

[8] = test system: PANC-1 (Pac-1, human pancreatic cancer cells); test: MTT cancer cell growth inhibition; format: cell-based; details: Homo sapiens, PANC-1, 72 h, MTT, 72 hours incubation; read-out: GI50 PAN
Summary of the method: as §1

[9] = test system: U937 (human leukemia cells); test: MTT cancer cell growth inhibition; format: cell-based; details: Homo sapiens, U-937, 72 h, MTT, 72 hours incubation; read-out: GI50 U93
Summary of the method: as §1

[10] = test system: KBM5-T315I (human chronic myelogenous leukemia); test: MTT cancer cell growth inhibition; format: cell-based; details: Homo sapiens, 72 h, MTT, 72 hours incubation, KBM5-T315I cells; read-out: GI50 KBM5-T315I
Summary of the method: as §1

[11] = test system: K562 (human leukemia cells); test: MTT cancer cell growth inhibition; format: cell-based; details: Homo sapiens, K562, 72 h, MTT, 72 hours incubation, K562 cells; read-out: GI50 K562
Summary of the method: as §1

[12] = test system: A549 (human lung cancer cells); test: MTT cancer cell growth inhibition; format: cell-based; details: Homo sapiens, A549, 72 h, MTT, 72 hours incubation; read-out: GI50 A54
Summary of the method: as §1

[13] = test system: MOLT-4 (human acute lymphoblastic leukemia cells); test: MTT cancer cell growth inhibition; format: cell-based; details: Homo sapiens, MOLT-4, 72 h, MTT, 72 hours incubation; read-out: GI50 Mol
Summary of the method: as §1

[14] = test system: lncap (prostate cancer cells); test: MTT cancer cell growth inhibition; format: cell-based; details: Homo sapiens, LNCaP, 72 h, MTT, 72 hours incubation; read-out: GI50 lnca
Summary of the method: as §1

[15] = test system: Hela (human cervical cancer cells); test: MTT cancer cell growth inhibition; format: cell-based; details: Homo sapiens, HeLa, 72 h, MTT, 72 hours incubation; read-out: GI50 Hela
Summary of the method: as §1

[16] = test system: Huh-7 (human hepatoma cells); test: MTT cancer cell growth inhibition; format: cell-based; details: Homo sapiens, Huh-7, 72 h, MTT, 72 hours incubation, Huh-7 cells; read-out: GI50 Huh-7
Summary of the method: as §1

[17] = test system: BGC-823 (human gastric cancer cells); test: MTT cancer cell growth inhibition; format: cell-based; details: Homo sapiens, BGC-823, 72 h, MTT, 72 hours incubation; read-out: GI50 BG
Summary of the method: as §1

[18] = test system: H1975 (non-small cell lung adenocarcinoma); test: MTT cancer cell growth inhibition; format: cell-based; details: Homo sapiens, NCI-H1975, 72 h, MTT, 72 hours incubation, H1975 cells; read-out: GI50 H1975
Summary of the method: as §1

[19] = test system: KBM-5 (human chronic myelogenous leukemia); test: MTT cancer cell growth inhibition; format: cell-based; details: Homo sapiens, KBM5, 72 h, MTT, 72 hours incubation, KBM-5 cells; read-out: GI50 KBM-5
Summary of the method: as §1

[20] = test system: DU145 (human prostate cancer cells); test: MTT cancer cell growth inhibition; format: cell-based; details: Homo sapiens, DU-145, 72 h, MTT, 72 hours incubation; read-out: GI50 Du1
Summary of the method: as §1

Row | Compound | IC50 HDAC7 (HDAC7) | GI50 [1] [nM] | GI50 [2] [nM] | GI50 [3] [nM] | GI50 [4] [nM] | GI50 [5] [nM] | GI50 [6] [nM] | GI50 [7] [nM] | GI50 [8] [nM] | GI50 [9] [nM] | GI50 [10] [nM] | GI50 [11] [nM] | GI50 [12] [nM] | GI50 [13] [nM] | GI50 [14] [nM] | GI50 [15] [nM] | GI50 [16] [nM] | GI50 [17] [nM] | GI50 [18] [nM] | GI50 [19] [nM] | further results
1 | C/C=C1\NC(=O)c2cc(F)cc(n2)CNC(=O)C[C@@H](/C=C/CCSC(=O)CCCCCC)OC(=O)[C@H](C(C)C)NC1=O [Example 34] | no activity | 67 | 90 | 49 | 94 | 94 | 50 | 49 | 90 | 30 | 53 | 53 | 40 | 40 | 40 | 70 | 49 | 60 | 34 | 74 | GI50 [20]: 50 nM
2 | C/C=C1\NC(=O)c2ccc(F)c(n2)CNC(=O)C[C@@H](/C=C/CCSC(=O)CCCCCC)OC(=O)[C@H](C(C)C)NC1=O [Example 35] | no activity | 63 | 50 | 61 | 51 | 51 | 50 | 46 | 50 | 30 | 59 | 26 | 60 | 40 | 40 | 70 | 46 | 60 | 38 | 75 | GI50 [20]: 20 nM
3 | C/C=C1\NC(=O)c2cc(F)cc(n2)CNC(=O)C[C@@H](/C=C/CCSC(=O)CCCCC)OC(=O)[C@H](C(C)C)NC1=O [Example 37] | no activity | 41 | 30 | 51 | 34 | 34 | 60 | 38 | 30 | 20 | 62 | 37 | 50 | 30 | 30 | 50 | 38 | 40 | 27 | 53 | GI50 [20]: 30 nM
4 | C/C=C1\NC(=O)c2ccc(F)c(n2)CNC(=O)C[C@@H](/C=C/CCSC(=O)CCCCC)OC(=O)[C@H](C(C)C)NC1=O [Example 38] | no activity | 49 | 80 | 34 | 84 | 84 | 60 | 33 | 80 | 30 | 64 | 39 | 30 | 30 | 30 | 70 | 33 | 40 | 34 | 77 | GI50 [20]: 30 nM
5 | C/C=C1\NC(=O)c2nc(ccc2F)CNC(=O)C[C@@H](/C=C/CCSC(=O)CCCC)OC(=O)[C@H](C(C)C)NC1=O [Example 39] | no activity | 50 | 80 | 41 | 83 | 83 | 60 | 22 | 80 | 30 | 67 | 26 | 40 | 20 | 20 | 70 | 22 | 50 | 35 | 72 | GI50 [20]: 20 nM
6 | C/C=C1\NC(=O)c2nc(ccc2F)CNC(=O)C[C@@H](/C=C/CCSC(=O)CCC)OC(=O)[C@H](C(C)C)NC1=O [Example 42] | no activity | 84 | 40 | 32 | 35 | 55 | 100 | 35 | 40 | 70 | 53 | 57 | 40 | 80 | 50 | 50 | 19 | 30 | 35 | 46 | GI50 [20]: 100 nM
7 | C/C=C1\NC(=O)c2ccc(F)c(n2)CNC(=O)C[C@@H](/C=C/CCSC(=O)CCCCCCC)OC(=O)[C@H](CC)NC1=O [Example 56] | no activity | 42 | 90 | 53 | 93 | 93 | 60 | 37 | 90 | 50 | 69 | 43 | 50 | 30 | 30 | 80 | 37 | 40 | 53 | 81 | GI50 [20]: 40 nM
8 | C/C=C1\NC(=O)c2ccc(F)c(n2)CNC(=O)C[C@@H](/C=C/CCSC(C)=O)OC(=O)[C@H](CC)NC1=O [Example 59] | no activity | 59 | 80 | 59 | 82 | 82 | 70 | 37 | 80 | 30 | 74 | 38 | 50 | 30 | 30 | 60 | 37 | 50 | 39 | 61 | GI50 [20]: 30 nM
